Entries after “also recorded” stand apart in the source; their conditions may differ.
Tests used:
[1] = tested on: human colon carcinoma HT29 cell line; conditions: supplemented with high concentrations of PLP and leucovorin; cited from earlier work
[2] = tested on: human colon carcinoma HCT116 cell line; conditions: supplemented with high concentrations of PLP and leucovorin; cited from earlier work
[3] = tested on: murine leukemia L1210 cell line; conditions: supplemented with high concentrations of PLP and leucovorin; cited from earlier work
[4] = tested on: solid tumors; test: Phase I/IIa study ISO-CC-005 of arfolitixorin with 5-FU; type: in vivo, human; conditions: between 8 and 16 weeks after initiating treatment
Procedure: Arfolitixorin has been in development for a number of years and has been studied in several clinical studies.
The completion of the study was announced in January 2020. In total, 105 patients were included in the study. […] These patients had been treated with the “doublet” regimens comprising 120 mg/m^2 arfolitixorin and 5-fluorouracil (5-FU) with either irinotecan or oxaliplatin (ARFIRI/ARFOX). Out of the 31 patients, 17 were treated with an ARFOX regimen.

[5] = [6R]-MTHF levels after arfolitixorin versus comparable leucovorin treatment; type: in vivo
Description: This dependency on cellular activation provides a hurdle for reaching sufficient levels of the active [6R]-MTHF. […] Secondly, the enzymatic activation is genetically regulated^16,18, and is therefore associated with variability between individuals and conditions. Arfolitoxirin is believed to be efficacious in a larger proportion of patients with less inter- and intra-individual variability. These differences may potentially turn out to be of significant importance for increased clinical efficacy in 5-FU based cancer treatment.

[6] = cited from earlier work
[7] = air, sunlight; cited from earlier work
[8] = Stability of the drug substance salt; type: physicochemical; conditions: compared with very unstable [6R]-5,10-MTHF
Description: Arfolitixorin (former Modufolin®) is a folate-based biomodulator developed by applicant to improve the outcome of a range of antimetabolite treatments used within oncology. One of the therapeutic areas of specific interest included in the development program of arfolitixorin is as biomodulator of 5-fluorouracil (5-FU) activity in standard treatment regime for advanced, metastatic CRC, such as Stage IV. A stable lyophilizate formulation of the naturally occurring diastereoisomeric folate [6R]-5,10-MTHF has successfully been made from the drug substance arfolitixorin hemisulfate. […] As mentioned in the background section of the present application, [6R]-5,10-methylenetetrahydrofolate, abbreviated herein as [6R]-5,10-MTHF, needs to be metabolically formed when using the widely used folate-based drugs leucovorin and levoleucovorin.

[9] = kidneys; cited from earlier work
[10] = in vitro; cited from earlier work

## O=c1[nH]cc(F)c(=O)[nH]1 [5-FU, 5-fluorouracil]
[1]
  cytotoxic activity of 5-FU: potentiated; also recorded: strongly potentiated
[2]
  cytotoxic activity of 5-FU: potentiated; also recorded: strongly potentiated
[3]
  cytotoxic activity of 5-FU: potentiated; also recorded: strongly potentiated

## Nc1nc2c(c(=O)[nH]1)N1CN(c3ccc(C(=O)N[C@@H](CCC(=O)O)C(=O)O)cc3)C[C@H]1CN2 [Arfolitixorin, [6R]-5,10-methylenetetrahydrofolate]
[4]
  progression of solid tumors: No statistically significant progression
[5]
  [6R]-MTHF levels relative to comparable treatment with leucovorin: 3-4 times

## Cc1ncc(CO)c(CO)c1O.Cl [Pyridoxine hydrochloride]
[6]
  solubility in water: One gram dissolves in 5 ml of water
[7]
  stability: stable in air and is slowly affected by sunlight

## Nc1nc2c(c(=O)[nH]1)N1CN(c3ccc(C(=O)N[C@@H](CCC(=O)O)C(=O)O)cc3)C[C@H]1CN2.Nc1nc2c(c(=O)[nH]1)N1CN(c3ccc(C(=O)N[C@@H](CCC(=O)O)C(=O)O)cc3)C[C@H]1CN2.O=S(=O)(O)O [arfolitixorin hemisulfate]
[8]
  stability of the salt: unexpectedly stable salt

## Nc1nc2c(c(=O)[nH]1)N(C=O)[C@H](CNc1ccc(C(=O)N[C@@H](CCC(=O)O)C(=O)O)cc1)CN2 [d-LV]
[9]
  excretion: slowly excreted by the kidneys

## Nc1nc(=O)c2c([nH]1)NC[C@H](CNc1ccc(C(=O)N[C@@H](CCC(=O)O)C(=O)O)cc1)N2C=O [l-LV]
[10]
  conversion to methyl-tetrahydrofolate: rapidly converted to the biologically available methyl-tetrahydrofolate form
